Test results from ChEMBL document CHEMBL1152723, “Remarkable enhancement in the DNA-binding ability of C2-fluoro substituted pyrrolo[2,1-c][1,4]benzodiazepines and their anticancer potential” (2009).

Experiments:
Type in all cases: functional
OVCAR-3 = assay: Growth inhibition of human OVCAR-3 cells after 48 hrs by sulforhodamine B protein assay; conditions: OVCAR-3, 48 h
UO-31 = assay: Growth inhibition of human UO31 cells after 48 hrs by sulforhodamine B protein assay; conditions: UO-31, 48 h
LOX IMVI = assay: Growth inhibition of human LOXIMVI cells after 48 hrs by sulforhodamine B protein assay
SF-539 = assay: Growth inhibition of human SF539 cells after 48 hrs by sulforhodamine B protein assay; conditions: SF-539, 48 h
HCC 2998 = assay: Growth inhibition of human HCC2998 cells after 48 hrs by sulforhodamine B protein assay; conditions: HCC 2998, 48 h
CAKI-1 = assay: Growth inhibition of human Caki1 cells after 48 hrs by sulforhodamine B protein assay; conditions: CAKI-1, 48 h
NCI-H522 = assay: Growth inhibition of human NCI-H522 cells after 48 hrs by sulforhodamine B protein assay; conditions: NCI-H522, 48 h
UACC-257 = assay: Growth inhibition of human UACC257 cells after 48 hrs by sulforhodamine B protein assay; conditions: UACC-257, 48 h
SK-MEL-5 = assay: Growth inhibition of human SK-MEL-5 cells after 48 hrs by sulforhodamine B protein assay; conditions: SK-MEL-5, 48 h
MOLT-4 = assay: Growth inhibition of human MOLT4 cells after 48 hrs by sulforhodamine B protein assay; conditions: MOLT-4, 48 h
HCT-15 = assay: Growth inhibition of human HCT15 cells after 48 hrs by sulforhodamine B protein assay; conditions: HCT-15, 48 h
ACHN = assay: Growth inhibition of human ACHN cells after 48 hrs by sulforhodamine B protein assay
SW-620 = assay: Growth inhibition of human SW620 cells after 48 hrs by sulforhodamine B protein assay; conditions: SW-620, 48 h
CCRF-CEM = assay: Growth inhibition of human CCRF-CEM cells after 48 hrs by sulforhodamine B protein assay
SK-MEL-2 = assay: Growth inhibition of human SK-MEL-2 cells after 48 hrs by sulforhodamine B protein assay; conditions: SK-MEL-2, 48 h
A498 = assay: Growth inhibition of human A498 cells after 48 hrs by sulforhodamine B protein assay; conditions: A498, 48 h

**Q.** `COc1cc2c(cc1OCCCN1CCN(CCCOc3cc4c(cc3OC)C(=O)N3CC(F)C[C@H]3C=N4)CC1)N=C[C@@H]1CC(F)CN1C2=O` (stereo partly specified) was tested. Which GI50 (OVCAR-3) did it give?
**A.** Its GI50 is < 40 nM.

**Q.** What about the GI50 (UO-31) of the same molecule?
**A.** Its GI50 is 1030 nM.

**Q.** And the GI50 (LOX IMVI)?
**A.** Its GI50 is < 10 nM.

**Q.** And the GI50 (SF-539)?
**A.** Its GI50 is < 10 nM.

**Q.** And the GI50 (HCC 2998)?
**A.** The GI50 was 110 nM.

**Q.** What about the GI50 (CAKI-1) of the same molecule?
**A.** Its GI50 is 20 nM.

**Q.** And the GI50 (NCI-H522)?
**A.** Its GI50 is < 10 nM.

**Q.** What about the GI50 (UACC-257) of the same molecule?
**A.** Its GI50 is 1270 nM.

**Q.** And the GI50 (SK-MEL-5)?
**A.** Its GI50 is < 40 nM.

**Q.** What about the GI50 (MOLT-4) of the same molecule?
**A.** Its GI50 is < 10 nM.

**Q.** And the GI50 (HCT-15)?
**A.** Its GI50 is 2560 nM.

**Q.** And the GI50 (ACHN)?
**A.** The GI50 was 150 nM.

**Q.** And the GI50 (SW-620)?
**A.** Its GI50 is < 50 nM.

**Q.** And the GI50 (CCRF-CEM)?
**A.** Its GI50 is < 10 nM.

**Q.** And the GI50 (SK-MEL-2)?
**A.** Its GI50 is 500 nM.

**Q.** And the GI50 (A498)?
**A.** Its GI50 is < 60 nM.
